Legend:
NA reuptake = test: Inhibition of NA (noradrenaline) uptake in rat hypothalamus synaptosomes; type: biochemical; details: synaptosomes from hypothalamus of male rat brains
Description: (§1) Biological Data Inhibition of NA and 5HT Uptake
(§2) In order to be able to carry out these in vitro studies, synaptosomes are freshly isolated from areas of the rat brain. In each case a so-called “P2” fraction prepared in accordance with the instructions of Gray and Whittaker (E. G. Gray and V. P. Whittaker (1962) J. Anat. 76, 79-88) is prepared. For the NA uptake, these vesicular particles are isolated from the hypothalamus of male rat brains. A detailed description of the method can be found in the literature (M. Ch. Frink, H.-H. Hennies, W. Englberger, M. Haurand and B. Wilffert (1996) Arzneim.-Forsch./Drug Res. 46 (III), 11, 1029-1036).

Serotonin reuptake = biological target: T1, Serotonin reuptake (Rattus norvegicus, UniProt P31652); test: Inhibition of 5HT (serotonin) uptake in rat brain synaptosomes; type: biochemical; details: synaptosomes from rat brain; for inhibition at 10 µM: 10 μmol
T1 construct: synaptosomes are freshly isolated from areas of the rat brain; from tissue; host or cells: rat brain synaptosomes (P2 fraction)
Description: as §1, §2

T1 sequence (P31652 whole entry): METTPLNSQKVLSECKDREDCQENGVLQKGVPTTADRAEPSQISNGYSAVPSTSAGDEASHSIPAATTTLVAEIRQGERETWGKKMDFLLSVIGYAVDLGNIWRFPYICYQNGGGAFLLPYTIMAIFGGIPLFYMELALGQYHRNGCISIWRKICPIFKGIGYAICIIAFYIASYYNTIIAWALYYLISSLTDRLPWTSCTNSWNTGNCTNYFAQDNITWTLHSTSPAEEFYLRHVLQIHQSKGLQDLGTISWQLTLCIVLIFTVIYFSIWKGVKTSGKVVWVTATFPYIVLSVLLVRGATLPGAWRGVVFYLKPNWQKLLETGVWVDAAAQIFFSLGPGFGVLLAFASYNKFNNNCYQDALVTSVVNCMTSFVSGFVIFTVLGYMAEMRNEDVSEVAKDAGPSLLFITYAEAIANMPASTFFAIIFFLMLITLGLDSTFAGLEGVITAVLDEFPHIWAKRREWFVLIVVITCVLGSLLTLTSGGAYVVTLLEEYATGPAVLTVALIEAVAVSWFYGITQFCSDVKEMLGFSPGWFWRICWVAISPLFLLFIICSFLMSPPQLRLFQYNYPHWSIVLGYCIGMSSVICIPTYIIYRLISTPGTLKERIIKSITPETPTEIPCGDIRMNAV

| Structure (SMILES) | NA reuptake % inhibition [10 μmol] (NA reuptake) [%] | inhibition at 10 µM (Serotonin reuptake) [%] | Serotonin reuptake % inhibition [10 μmol] (Serotonin reuptake) [%] |
| --- | --- | --- | --- |
| O=C(/C=C/c1ccccc1)N1CCn2cccc2C1c1cccs1 (centres unmarked) [Example 72, 3-phenyl-1-(1-(thiophen-2-yl)-3,4-dihydropyrrolo[1,2-a]pyrazin-2(1H)-yl)prop-2-en-1-one] | 23 | 28 | – |
| COc1ccccc1C1c2cccn2CCN1C(=O)C1CCCC1 (centres unmarked) [Example 2, cyclopentyl-[1-(2-methoxy-phenyl)-3,4-dihydro-1H-pyrrolo[1,2-a]pyrazin-2-yl]-methanone] | 36 | 79 | – |
| O=C(c1cccc(F)c1)N1CCn2cccc2C1c1cccs1 (centres unmarked) [Example 58, (3-fluoro-phenyl)-(1-thiophen-2-yl-3,4-dihydro-1H-pyrrolo[1,2-a]pyrazin-2-yl)-methanone] | 54 | 60 | – |
| Cc1ccccc1C(=O)N1CCn2cccc2C1c1ccccc1F (centres unmarked) [Example 8, (1-(2-fluorophenyl)-3,4-dihydropyrrolo[1,2-a]pyrazin-2(1H)-yl)(o-tolyl)methanone] | 18 | 37 | – |
| O=C(c1ccco1)N1CCn2cccc2C1c1ccc(Cl)c(Cl)c1 (centres unmarked) [Example 68, [1-(3,4-dichloro-phenyl)-3,4-dihydro-1H-pyrrolo[1,2-a]pyrazin-2-yl]-furan-2-yl-methanone] | 48 | 57 | – |
| CN(C)c1ccc(C2c3cccn3CCN2C(=O)C2CC2)cc1 (centres unmarked) [Example 52, cyclopropyl(1-(4-(dimethylamino)phenyl)-3,4-dihydropyrrolo[1,2-a]pyrazin-2(1H)-yl)methanone] | 16 | 27 | – |
| COc1ccccc1C(=O)N1CCn2cccc2C1c1cccc(Cl)c1 (centres unmarked) [Example 39, (1-(3-chlorophenyl)-3,4-dihydropyrrolo[1,2-a]pyrazin-2-(1H)-yl)(2-methoxyphenyl)methanone] | 43 | – | 46 |
| O=C(c1cccc(F)c1)N1CCn2cccc2C1c1ccccc1 (centres unmarked) [Example 23, (3-fluorophenyl)(1-phenyl-3,4-dihydropyrrolo[1,2-a]pyrazin-2(1H)-yl)methanone] | 41 | 42 | – |
| Cc1cccc(C2c3cccn3CCN2C(=O)c2cccc(F)c2)c1 (centres unmarked) [Example 16, (3-fluoro-phenyl)-(1-m-tolyl-3,4-dihydro-1H-pyrrolo[1,2-a]pyrazin-2-yl)-methanone] | 49 | 54 | – |
| O=C(c1ccccc1F)N1CCn2cccc2C1c1ccc(Cl)c(Cl)c1 (centres unmarked) [Example 63, [1-(3,4-dichloro-phenyl)-3,4-dihydro-1H-pyrrolo[1,2-a]pyrazin-2-yl]-(2-fluoro-phenyl)-methanone] | 71 | 65 | – |
| O=C(C1CCC1)N1CCn2cccc2C1c1ccc(Cl)c(Cl)c1 (centres unmarked) [Example 66, cyclobutyl(1-(3,4-dichlorophenyl)-3,4-dihydropyrrolo[1,2-a]pyrazin-2(1H)-yl)methanone] | 32 | 43 | – |
| O=C(c1ccc(F)cc1)N1CCn2cccc2C1c1ccc2c(c1)OCCO2 (centres unmarked) [Example 38, [1-(2,3-dihydro-benzo[1,4]dioxin-6-yl)-3,4-dihydro-1H-pyrrolo[1,2-a]pyrazin-2-yl]-(4-fluoro-phenyl)-methanone] | 48 | 58 | – |
| Cc1ccccc1C(=O)N1CCn2cccc2C1c1cccs1 (centres unmarked) [Example 57, (1-(thiophen-2-yl)-3,4-dihydropyrrolo[1,2-a]pyrazin-2(1H)-yl)(o-tolyl)methanone] | 15 | 44 | – |

Source: patent US7879858B2, “Substituted tetrahydropyrrolopyrazine compounds and the use thereof in pharmaceutical compositions” (Gruenenthal GmbH, priority 2006, dated 2011)
